Patent publication US20260183277A1, “ANTIVIRAL PHARMACEUTICAL COMPOSITION COMPRISING ERRy INHIBITOR AS ACTIVE INGREDIENT” (priority 2024, published 2026)
Where two headings read alike, the source gives them in different places.

What was measured:
[1] = test system: intracellular triacylglycerol (TAG); type: cell-based; conditions: virus-infected cells; 20 μM
free fatty acids (FFA) = type: cell-based
[2] = test system: SARS-CoV-2-infected Vero E6 cells; assay: Eicosanoid and cytokine ELISA in SARS-CoV-2-infected Vero E6 cells; type: cell-based, monkey
[3] = test system: human SREBP1c gene promoter; type: cell-based; conditions: cells infected with each individual virus; 20 μM
PSaV Cowden strain = assay: microbe, parasite or virus in culture; type: cell-based, porcine sapovirus; conditions: Sapporo virus, MOI=0.1 FFU, viral yield in cell supernatant, read-out: half-maximal inhibitory concentration (IC50)
IAV HA protein = type: cell-based, influenza A virus
[4] = Lung distribution after administration to animals; conditions: in vivo experiments
Source text: […]. […] […]

[5] = test system: intracellular fatty acid oxidation (FAO); type: cell-based
[6] = test system: SARS-CoV-2-infected cells; assay: Double-membrane vesicle / dsRNA formation by TEM and confocal microscopy; type: cell-based
[7] = test system: SREBP1c, SREBP1a, FASN, DGAT1, SCD1; type: cell-based
SARS-CoV-2 KCDC03 strain = assay: SARS-CoV-2 KCDC03 challenge of Syrian hamsters; type: in vivo; conditions: for reduction of gross lung lesions, individual therapy: strain not stated
[8] = test system: influenza A virus (IAV) PR8 strain; type: cell-based
SARS-CoV-2 S protein = type: cell-based
ERRγ = molecular target: T1, ERRγ (Homo sapiens, UniProt P62508); conditions: compared with lead compound GSK5182; cited from earlier work
T1 sequence (P62508 1-458): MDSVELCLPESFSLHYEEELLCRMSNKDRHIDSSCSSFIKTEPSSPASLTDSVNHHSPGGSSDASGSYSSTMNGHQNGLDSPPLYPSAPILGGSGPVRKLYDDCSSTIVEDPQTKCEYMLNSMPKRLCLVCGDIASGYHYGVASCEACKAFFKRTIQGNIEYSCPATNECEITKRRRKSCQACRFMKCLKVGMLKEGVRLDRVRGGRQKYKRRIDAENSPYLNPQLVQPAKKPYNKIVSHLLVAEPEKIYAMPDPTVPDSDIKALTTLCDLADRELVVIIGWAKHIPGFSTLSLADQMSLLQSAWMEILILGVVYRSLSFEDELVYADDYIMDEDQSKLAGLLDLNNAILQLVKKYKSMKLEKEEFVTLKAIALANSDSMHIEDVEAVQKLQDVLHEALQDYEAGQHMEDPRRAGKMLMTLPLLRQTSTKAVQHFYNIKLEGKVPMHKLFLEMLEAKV

[9] = mice
BCoV KWD strain = type: cell-based, bovine coronavirus; conditions: maximum dose of 20 μM
PEDV QIAP1401 strain = type: cell-based, porcine epidemic diarrhea coronavirus; conditions: maximum dose of 20 μM
IAV-infected A549 cells = type: cell-based, human
ROS = type: cell-based
[10] = test system: c-Jun occupancy on the AP1 regulatory element site of the ERRγ promoter; type: cell-based
ERRγ promoter = type: cell-based

CC(C)N1CCN(c2ccc(/C(=C(/CCCO)c3ccccc3)c3ccc(O)cc3)cc2)CC1 [DN200434]
lipid accumulation (intracellular TAG) [1]: effectively attenuated
synthesis of representative fatty acids induced by infection (free fatty acids (FFA)): significantly interrupted
level of selected FFA (free fatty acids (FFA); 20 μM): either restored the level of selected FFA to that of mock control cells or decreased it below mock control levels
IFN-α and IFN-β levels ([2]; SARS-CoV-2-infected Vero cells): remained unchanged
TNF-α, IL-6, and MCP-1 levels ([2]; SARS-CoV-2-infected Vero cells): significantly reduced
levels of PGE2 and LTB4 ([2]; SARS-CoV-2-infected cells): significantly reduced
activity of the SREBP1c gene promoter [3]: markedly suppressed
IC50 (PSaV Cowden strain): 6.24 ± 1.07 µM
palmitoylation of IAV HA proteins (IAV HA protein): significantly inhibited
detection in the lungs via the bloodstream [4]: detected in sufficient quantities in the lungs
energy production through 3-oxidation in the mitochondria from the FFA substrate [5]: inhibited
SARS-CoV-2-induced perinuclear DMV clusters containing viral double-stranded RNA ([6]; TEM and confocal microscopy): significant reduction
number of progeny viral particles ([6]; TEM, vs vehicle-treated virus-infected cells): notable reduction
SREBP1c expression activated by individual virus infections [7]: reduced
basal level of SREBP1a mRNA ([7]; 20 μM): not affected
lipogenic gene activation (FASN, DGAT1, SCD1 mRNA) ([7]; 20 μM): effectively attenuated
reduction in gross lung lesions (SARS-CoV-2 KCDC03 strain; 40 mg kg^−1 d^−1 i.p., twice a day for four and a half days, vs virus-challenged, vehicle-treated control): 92%
reduction of gross lung lesions, individual therapy (SARS-CoV-2 KCDC03 strain; DN200434 40 mg kg^−1 d^−1 alone (combination study)): 50%
IFN-α and IFN-β levels in BALF (SARS-CoV-2 KCDC03 strain; hamsters, i.p., vs vehicle-treated controls): no effect
viral genome replication, progeny production, and protein synthesis of IAV [8]: dose-dependent suppression
palmitoylation of SARS-CoV-2 S protein (SARS-CoV-2 S protein): significantly inhibited
signs of toxicity (Syrian hamsters, i.p. 40 mg kg^−1 d^−1, 14 days): did not induce any signs of toxicity
gross or histopathological changes in vital organs (liver, lung, kidney, heart, spleen) (hamsters): did not result in gross or histopathological changes
functional IC50 relative to GSK5182 (ERRγ): 12 fold
gross or histopathological changes in vital organs (liver, lung, kidney, heart, spleen) [9]: did not result in gross or histopathological changes
signs of toxicity ([9]; i.p. 20 mg kg^−1 d^−1, 14 days): did not induce any signs of toxicity
reduction in viral genome copy numbers (BCoV KWD strain): more than 2.0 log 10 steps
reduction in viral titers (BCoV KWD strain): more than 2.0 log 10 steps
reduction in viral genome copy numbers (PEDV QIAP1401 strain): more than 2.0 log 10 steps
reduction in viral titers (PEDV QIAP1401 strain): more than 2.0 log 10 steps
levels of PGE2 and LTB4 (IAV-infected A549 cells): significantly reduced
proinflammatory cytokines IFN-α, IFN-β, TNF-α, IL-6, and MCP-1 (IAV-infected A549 cells): significant suppression

CC(=O)N[C@@H](CS)C(=O)O [NAC, N-acetylcysteine]
virus-induced ROS generation (ROS): significantly suppressed
virus-increased occupancy of c-Jun on the AP1 regulatory element site of the ERRγ promoter [10]: markedly blocked
virus-induced activation of ERRγ promoter and ERRγ expression (ERRγ promoter): attenuated

CCC(CC)COC(=O)[C@H](C)N[P@](=O)(OC[C@H]1O[C@@](C#N)(c2ccc3c(N)ncnn23)[C@H](O)[C@@H]1O)Oc1ccccc1 [remdesivir, reference compound]
reduction of gross lung lesions, individual therapy (SARS-CoV-2 KCDC03 strain; remdesivir 2.5 mg kg^−1 d^−1 alone): 20%
